According to PubChem BioAssay AID248 (DTP/NCI, 2004):
“And” between values parts separate entries of the source, which are not always exact repeats. Identical values can stand only once. Toxic doses and inconclusive results are not listed. No stated cut-off is given here; in the data, active means T/C of 150% or more; inactive means T/C below 125%.

Tested on: L1210 leukemia ip in BDF1 mice, survival T/C
Test: NCI In Vivo Anticancer Drug Screen. Data for tumor model L1210 Leukemia (intraperitoneal) in B6D2F1 (BDF1) mice
Conditions: higher = longer survival
Summary of the method: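 Antitumor effect is assessed in tumor-bearing animals. Survival in the compound arm is compared with a vehicle-dosed control arm and expressed as their quotient.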

[1] = endpoint: mean survival time, dose: 100.0 mg/kg/injection, schedule: Q04DX002 (ip), vehicle: Klucel (hydroxypropylcellulose) (HPC)
[2] = endpoint: mean survival time, dose: 200.0 mg/kg/injection, schedule: Q04DX002 (ip), vehicle: Klucel (hydroxypropylcellulose) (HPC)
[3] = endpoint: mean survival time, dose: 400.0 mg/kg/injection, schedule: Q04DX002 (ip), vehicle: Klucel (hydroxypropylcellulose) (HPC)
[4] = endpoint: mean survival time, dose: 100.0 mg/kg/injection, schedule: Q04DX002 (ip), vehicle: saline with Tween-80
[5] = endpoint: mean survival time, dose: 200.0 mg/kg/injection, schedule: Q04DX002 (ip), vehicle: saline with Tween-80
[6] = endpoint: mean survival time, dose: 400.0 mg/kg/injection, schedule: Q04DX002 (ip), vehicle: saline with Tween-80
[7] = endpoint: mean survival time, dose: 100.0 mg/kg/injection, schedule: Q04DX003 (ip), vehicle: saline with Tween-80
[8] = endpoint: mean survival time, dose: 100.0 mg/kg/injection, schedule: Q01DX001 (ip), vehicle: saline
[9] = endpoint: mean survival time, dose: 200.0 mg/kg/injection, schedule: Q01DX001 (ip), vehicle: saline
[10] = endpoint: mean survival time, dose: 400.0 mg/kg/injection, schedule: Q01DX001 (ip), vehicle: saline
[11] = endpoint: mean survival time, dose: 200.0 mg/kg/injection, schedule: Q04DX003 (ip), vehicle: saline with Tween-80
[12] = endpoint: mean survival time, dose: 50.0 mg/kg/injection, schedule: Q01DX001 (ip), vehicle: saline
[13] = endpoint: mean survival time, dose: 100.0 mg/kg/injection, schedule: Q01DX009 (ip), vehicle: saline with Tween-80
[14] = endpoint: mean survival time, dose: 200.0 mg/kg/injection, schedule: Q01DX009 (ip), vehicle: saline with Tween-80
[15] = endpoint: mean survival time, dose: 400.0 mg/kg/injection, schedule: Q01DX009 (ip), vehicle: saline with Tween-80
[16] = endpoint: mean survival time, dose: 25.0 mg/kg/injection, schedule: Q01DX001 (ip), vehicle: saline with Tween-80
[17] = endpoint: mean survival time, dose: 400.0 mg/kg/injection, schedule: Q04DX003 (ip), vehicle: saline with Tween-80
[18] = endpoint: mean survival time, dose: 200.0 mg/kg/injection, schedule: Q01DX001 (ip), vehicle: carboxymethylcellulose (CMC)

Measured: T/C

O=C1OCC/C1=C\OCCCO/C=C1\CCOC1=O
inactive: [1] 100 % of control | [2] 87 % of control | [3] 97 % of control

O=C(CNC1=NCCN1)Nc1ccc(NC(=O)c2ccc(C(=O)Nc3ccc(NC(=O)CNC4=NCCN4)cc3)cc2)cc1
inactive: endpoint: mean survival time, dose: 30.0 mg/kg/injection, schedule: Q01DX Z (ip), vehicle: water 114 % of control | endpoint: mean survival time, dose: 40.0 mg/kg/injection, schedule: Q01DX Z (ip), vehicle: water 120 % of control | endpoint: mean survival time, dose: 50.0 mg/kg/injection, schedule: Q01DX Z (ip), vehicle: water 121 % of control | endpoint: mean survival time, dose: 62.5 mg/kg/injection, schedule: Q01DX Z (ip), vehicle: water 124 % of control | endpoint: mean survival time, dose: 125.0 mg/kg/injection, schedule: Q01DX Z (ip), vehicle: water 118 % of control | endpoint: mean survival time, dose: 250.0 mg/kg/injection, schedule: Q01DX Z (ip), vehicle: water 109 % of control | endpoint: mean survival time, dose: 500.0 mg/kg/injection, schedule: Q01DX Z (ip), vehicle: water 106 % of control

CO[CH2][Pb]([c]1ccccc1)([c]1ccccc1)[c]1ccccc1
inactive: [4] 98 % of control | [5] 94 % of control | [6] 94 % of control

CCOC(=O)/C(C#N)=C(\C)c1cccc(C)c1
inactive: endpoint: mean survival time, dose: 25.0 mg/kg/injection, schedule: Q04DX003 (ip), vehicle: saline with Tween-80 94 % of control | endpoint: mean survival time, dose: 50.0 mg/kg/injection, schedule: Q04DX003 (ip), vehicle: saline with Tween-80 94 % of control | [7] 102 % of control

COc1ccc(C(=O)NCCBr)cc1[N+](=O)[O-]
inactive: [8] 108 % of control | endpoint: mean survival time, dose: 100.0 mg/kg/injection, schedule: Q04DX003 (ip), vehicle: Klucel (hydroxypropylcellulose) (HPC) 97 % of control | [9] 103 % of control | endpoint: mean survival time, dose: 200.0 mg/kg/injection, schedule: Q04DX003 (ip), vehicle: Klucel (hydroxypropylcellulose) (HPC) 101 % of control | [10] 98 % of control | endpoint: mean survival time, dose: 400.0 mg/kg/injection, schedule: Q04DX003 (ip), vehicle: Klucel (hydroxypropylcellulose) (HPC) 111 % of control

CCCCOP(=O)(Cc1cc(C)cc(C)c1)OCCCC
inactive: [7] 87 % of control | [11] 101 % of control

O=C1C(c2ccccc2)=C2C(=C1c1ccccc1)c1cccc3cccc2c13
inactive: [12] 97 % of control | [8] 97 % of control | [13] 92 % of control | [9] 100 % of control | [14] 103 % of control | [10] 120 % of control | [15] 97 % of control

CN(C)C(=S)NNC(=O)c1ccc(Cl)cc1
inactive: endpoint: mean survival time, dose: 6.25 mg/kg/injection, schedule: Q01DX001 (ip), vehicle: saline with Tween-80 98 % of control | endpoint: mean survival time, dose: 12.5 mg/kg/injection, schedule: Q01DX001 (ip), vehicle: saline with Tween-80 101 % of control | [16] 104 % of control

Cc1cc(C)c(Nc2n[nH]c(=S)s2)cc1C
inactive: [4] 87 % of control | [5] 92 % of control | [6] 94 % of control

CN=NC(C)(C)OC(C)=O
inactive: endpoint: mean survival time, dose: 12.5 mg/kg/injection, schedule: Q01DX001 (ip), vehicle: saline 97 % of control | endpoint: mean survival time, dose: 12.5 mg/kg/injection, schedule: Q01DX009 (ip), vehicle: saline 101 % of control | endpoint: mean survival time, dose: 12.5 mg/kg/injection, schedule: Q04DX003 (ip), vehicle: saline 107 % of control | endpoint: mean survival time, dose: 25.0 mg/kg/injection, schedule: Q01DX001 (ip), vehicle: saline 96 % of control | endpoint: mean survival time, dose: 25.0 mg/kg/injection, schedule: Q01DX009 (ip), vehicle: saline 108 % of control | endpoint: mean survival time, dose: 25.0 mg/kg/injection, schedule: Q04DX003 (ip), vehicle: saline 107 % of control | [12] 107 % of control | endpoint: mean survival time, dose: 50.0 mg/kg/injection, schedule: Q04DX003 (ip), vehicle: saline 98 % of control

OC(CNc1ccnc2cc(Cl)ccc12)CNC1CCCCC1 (centres undefined)
inactive: endpoint: mean survival time, dose: 75.0 mg/kg/injection, schedule: Q01DX001 (ip), vehicle: other 97 % of control

N#CC1(NC(Cc2ccccc2)c2ccccc2)CCCC1 (centres undefined)
inactive: endpoint: mean survival time, dose: 100.0 mg/kg/injection, schedule: Q01DX009 (ip), vehicle: Klucel (hydroxypropylcellulose) (HPC) 114 % of control | endpoint: mean survival time, dose: 200.0 mg/kg/injection, schedule: Q01DX009 (ip), vehicle: Klucel (hydroxypropylcellulose) (HPC) 95 % of control | endpoint: mean survival time, dose: 400.0 mg/kg/injection, schedule: Q01DX009 (ip), vehicle: Klucel (hydroxypropylcellulose) (HPC) 92 % of control

Cc1ccc([I+]c2ccc(C)cc2)cc1
inactive: endpoint: mean survival time, dose: 8.0 mg/kg/injection, schedule: Q04DX002 (ip), vehicle: saline 101 % of control | endpoint: mean survival time, dose: 16.0 mg/kg/injection, schedule: Q04DX002 (ip), vehicle: saline 92 % of control | endpoint: mean survival time, dose: 32.0 mg/kg/injection, schedule: Q04DX002 (ip), vehicle: saline 92 % of control

CC(C)(C)c1cccc(C(C)(C)C)n1
inactive: [7] 97 % of control | [11] 105 % of control | [17] 115 % of control

COC(=O)C(Cc1ccc(N(CCCl)CCCl)cc1)N=NNc1nc[nH]c1C(N)=O (centres undefined)
inactive: endpoint: mean survival time, dose: 56.0 mg/kg/injection, schedule: Q01DX009 (ip), vehicle: other 114 % of control | endpoint: mean survival time, dose: 200.0 mg/kg/injection, schedule: Q04DX003 (ip), vehicle: other 103 % of control | endpoint: median survival time, dose: 12.5 mg/kg/injection, schedule: Q01DX009 (ip), vehicle: steriod suspending solution 122 % of control | endpoint: median survival time, dose: 50.0 mg/kg/injection, schedule: Q01DX009 (ip), vehicle: steriod suspending solution 105 % of control | endpoint: median survival time, dose: 100.0 mg/kg/injection, schedule: Q01DX009 (ip), vehicle: steriod suspending solution 88 % of control
active: endpoint: mean survival time, dose: 11.0 mg/kg/injection, schedule: Q03HX024 (ip), vehicle: other 150 % of control | endpoint: mean survival time, dose: 17.0 mg/kg/injection, schedule: Q03HX024 (ip), vehicle: other 176 % of control | endpoint: mean survival time, dose: 25.0 mg/kg/injection, schedule: Q03HX024 (ip), vehicle: other 157 % of control | endpoint: mean survival time, dose: 38.0 mg/kg/injection, schedule: Q01DX009 (ip), vehicle: other 152 % of control | endpoint: mean survival time, dose: 88.0 mg/kg/injection, schedule: Q04DX003 (ip), vehicle: other 166 % of control | endpoint: mean survival time, dose: 134.0 mg/kg/injection, schedule: Q04DX003 (ip), vehicle: other 160 % of control | [18] 161 % of control | endpoint: mean survival time, dose: 300.0 mg/kg/injection, schedule: Q01DX001 (ip), vehicle: carboxymethylcellulose (CMC) 181 % of control | endpoint: mean survival time, dose: 375.0 mg/kg/injection, schedule: Q01DX001 (ip), vehicle: carboxymethylcellulose (CMC) 151 % of control

Nc1ncnc2cc[nH]c12
inactive: endpoint: mean survival time, dose: 88.0 mg/kg/injection, schedule: Q01DX001 (ip), vehicle: carboxymethylcellulose (CMC) 102 % of control and 104 % of control | endpoint: mean survival time, dose: 133.0 mg/kg/injection, schedule: Q01DX001 (ip), vehicle: carboxymethylcellulose (CMC) 96 % of control and 104 % of control | [18] 102 % of control and 106 % of control

Nc1nc(N)c(N)c(SCC(=O)C(=O)O)n1
inactive: [16] 108 % of control | endpoint: mean survival time, dose: 50.0 mg/kg/injection, schedule: Q01DX001 (ip), vehicle: saline with Tween-80 111 % of control | endpoint: mean survival time, dose: 100.0 mg/kg/injection, schedule: Q01DX001 (ip), vehicle: saline with Tween-80 106 % of control and 108 % of control | endpoint: mean survival time, dose: 200.0 mg/kg/injection, schedule: Q01DX001 (ip), vehicle: saline with Tween-80 115 % of control

C/C(=C/C(=O)O)c1ccc([N+](=O)[O-])cc1
inactive: [7] 100 % of control | [11] 96 % of control | [17] 100 % of control

CCCCCCOC(=O)Nc1ccc(S(=O)(=O)CC)cc1
inactive: endpoint: mean survival time, dose: 100.0 mg/kg/injection, schedule: Q01DX001 (ip), vehicle: carboxymethylcellulose (CMC) 100 % of control | [18] 97 % of control | endpoint: mean survival time, dose: 400.0 mg/kg/injection, schedule: Q01DX001 (ip), vehicle: carboxymethylcellulose (CMC) 97 % of control

COc1ccccc1NC(=O)Nc1cc(C)cc(C)n1
inactive: [13] 101 % of control | [7] 97 % of control | [14] 98 % of control | [11] 97 % of control | [15] 104 % of control | [17] 101 % of control

Cc1c(C)c(C)c(CCl)c(CCl)c1C
inactive: [1] 97 % of control | [2] 90 % of control | [3] 122 % of control

CNC(=O)Oc1ccccc1C(C)C
inactive: [1] 91 % of control | [2] 94 % of control | [3] 95 % of control and 98 % of control
